The test system of data set [1] is Zika virus. The data set can be described thus: Antiviral activity against Zika virus infected in human SF-268 cells assessed as reduction in viral NS1 protein synthesis at 10 uM measured at 96 hrs by immunofluorescence assay relative to control. The format is functional.
In data set [2] the test system is Zika virus. The data set can be described thus: Antiviral activity against Zika virus infected in human SF-268 cells assessed as inhibition of virus-induced cytopathic effect at 10 uM measured at 96 hrs MTT assay. The format is functional. For orientation: Cytopathic effects are the visible damage that an infection or toxin causes in cultured cells.
Data set [3] deals with Zika virus. The data set can be described thus: Antiviral activity against Zika virus infected in SF-268 cells assessed as inhibition of viral infection at entry stage measured after 96 hrs by DAPI staining based fluorescence microscopic analysis. The format is functional, organism-based. Conditions: SF-268, 96 h.
The nature of data set [4]: Cytotoxicity against human SF-268 cells assessed as inhibition of cell viability measured after 96 hrs by MTT assay. The format is cell-based. For orientation: Formazan colour is commonly taken as a measure of viable cells.
For data set [5], the system named is Zika virus. The data set can be described thus: Antiviral activity against Zika virus infected in SF-268 cells assessed as inhibition of viral infection at post entry stage after 96 hrs measured after 1 hr post infection by DAPI staining based fluorescence microscopic analysis. The format is functional, organism-based.
A short description of data set [6]: Therapeutic index, ratio of CC50 for cytotoxicity against human SF-268 cells to IC50 for antiviral activity against Zika virus infected in human SF-268 cells. The format is toxicity, cell-based. Conditions: read-out: TI.
Data set [7] relates to Zika virus. The data set can be described thus: Antiviral activity against Zika virus infected in human SF-268 cells assessed as reduction in viral infection by DAPI staining based immunofluorescence assay. The format is functional, organism-based.

Calls of active or inactive are those of the source. The calls are words filed in the database; no cut-off is given here.

In general, inhibition refers to the share of the control response that was lost under treatment. Regarding `COC(=O)[C@@]1(C)CC[C@]2(C)CC[C@]3(C)C(=CCC4[C@@]5(C)Cc6snnc6C(C)(C)C5CC[C@]43C)C2C1` (some centres not stated), in the data set on Zika virus [1], the INH is listed as 55.4%. Also, the inhibition result with Zika virus [2] was “Active”.
By IC50 is commonly meant the concentration at which inhibition is half-maximal. Broadly, the CC50 is the concentration at which the toxic effect on the cells reaches its halfway point. `CCCCOC(=O)[C@@]1(C)CC[C@]2(C)CC[C@]3(C)C(=CC(=O)C4[C@@]5(C)Cc6snnc6C(C)(C)C5CC[C@]43C)[C@@H]2C1` (some centres not stated): the concentration for half-maximal inhibition (IC50) with Zika virus [3] was 500 nM; in the data set on Zika virus [5] it was 430 nM; in the data set on Zika virus [7] it was 560 nM. The CC50 at 96 h in data set [4] is greater than 50000 nM. The INH in the data set on Zika virus [1] was determined as 82.1%. The inhibition at 10 µM with Zika virus [2] was greater than 70%. Moreover, the selectivity ratio in data set [6] was greater than 89.3.
As to `COC(=O)[C@@]1(C)CC[C@]2(C)CC[C@]3(C)C(=CC(=O)C4[C@@]5(C)Cc6snnc6C(C)(C)C5CC[C@]43C)[C@@H]2C1` (some centres not stated), the IC50 was found to be 620 nM in the data set on Zika virus [3], 1940 nM in the data set on Zika virus [5] and 290 nM in the data set with Zika virus [7]. Moreover, the CC50 at 96 h in data set [4] is greater than 50000 nM. Besides, the INH in the data set with Zika virus [1] is 74.9%. Further, the inhibition at 10 µM in the data set with Zika virus [2] is greater than 70%. Moreover, the selectivity ratio in data set [6] is greater than 172.
Consider `COC(=O)[C@]1(C)C=C2C3=CC(=O)C4[C@@]5(C)CC/C(=N\NC(N)=O)C(C)(C)C5CC[C@@]4(C)[C@]3(C)CC[C@@]2(C)CC1` (some centres not stated), for which, in the data set on Zika virus [1], the INH amounted to 62.6%. In addition, the inhibition at 10 µM in the data set with Zika virus [2] worked out at 63%.
`COC(=O)[C@@]1(C)CC[C@]2(C)CC[C@]3(C)C(=CC(=O)C4[C@@]5(C)CC/C(=N\NC(N)=O)C(C)(C)C5CC[C@]43C)[C@@H]2C1` (some centres not stated): the INH in the data set with Zika virus [1] turned out to be 66.6%. The inhibition at 10 µM in the data set on Zika virus [2] worked out at 63%.
For the compound `CC(=O)O[C@H]1CC[C@@]2(C)C(CC[C@]3(C)C2C(=O)C=C2C4C[C@@](C)(C(=O)Nc5cccnc5)CC[C@]4(C)CC[C@]23C)C1(C)C` (some centres not stated), the IC50 stood at 680 nM with Zika virus [3], 1000 nM in the data set on Zika virus [5] and 130 nM with Zika virus [7]. The half-maximal cytotoxic concentration (CC50) at 96 h in data set [4] was greater than 50000 nM. Further, the INH with Zika virus [1] was 76.3%. The inhibition at 10 µM in the data set with Zika virus [2] was greater than 70%. For the same compound, the selectivity ratio in data set [6] is greater than 384.
With `CC(=O)O[C@H]1CC[C@@]2(C)C(CC[C@]3(C)C2C(=O)C=C2C4C[C@@](C)(C(=O)Nc5nc(-c6ccccc6)cs5)CC[C@]4(C)CC[C@]23C)C1(C)C` (some centres not stated), the INH in the data set with Zika virus [1] is listed as 52.3%. Further, the inhibition result in the data set on Zika virus [2] is “Active”.
Turning to `CCCCOC(=O)[C@@]1(C)CC[C@]2(C)CC[C@]3(C)C(=CC(=O)C4[C@@]5(C)CC/C(=N\NC(N)=O)C(C)(C)C5CC[C@]43C)[C@@H]2C1` (some centres not stated), the 50% inhibitory concentration (IC50) in the data set on Zika virus [3] is 1090 nM; in the data set on Zika virus [5], 450 nM; in the data set on Zika virus [7] it was 550 nM. Moreover, in data set [4], the 50% cytotoxic concentration (CC50) at 96 h is greater than 50000 nM. For the same compound, in the data set on Zika virus [1], the INH came out at 82.8%. The inhibition at 10 µM in the data set with Zika virus [2] is greater than 70%. In addition, in data set [6], the selectivity ratio is greater than 90.9.
Regarding `COC(=O)[C@@]1(C)CC[C@]2(C)CC[C@]3(C)C(=CCC4[C@@]5(C)CC/C(=N\NC(N)=S)C(C)(C)C5CC[C@]43C)C2C1` (some centres not stated), the INH in the data set on Zika virus [1] worked out at 49.5%. The inhibition result with Zika virus [2] is “Active”.
In the same order, the values of `CC(=O)O[C@H]1CC[C@@]2(C)C(CC[C@]3(C)C2C(=O)C=C2C4C[C@@](C)(C(=O)Nc5cnc6ccccc6c5)CC[C@]4(C)CC[C@]23C)C1(C)C` (some centres not stated) are 26.5% and “Active”.
The corresponding values for `COC(=O)[C@@]1(C)CC[C@]2(C)CC[C@]3(C)C(=CCC4[C@@]5(C)CC/C(=N\NC(N)=O)C(C)(C)C5CC[C@]43C)C2C1` (some centres not stated) are 49.9% and “Active”.

The values above are taken from ChEMBL document CHEMBL4811277, “Glycyrrhetinic acid derivatives as Zika virus inhibitors: Synthesis and antiviral activity in vitro” (Bioorg Med Chem, 2021).
